In PubChem BioAssay (NCI):
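Cultured in 96-well plates, cells were exposed to test compound for 48 hours across five concentrations. At the GI50, growth is halved. TGI marks complete inhibition of growth.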

Key:
Experiment in all cases: NCI tumour cell line growth inhibition, 48 h
SK-MEL-5 melanoma = test system: SK-MEL-5 melanoma
OVCAR-8 ovarian = test system: OVCAR-8 ovarian
SR leukemia = test system: SR leukemia
SW-620 colon = test system: SW-620 colon
RPMI-8226 leukemia = test system: RPMI-8226 leukemia
SNB-19 CNS = test system: SNB-19 CNS
EKVX NSCLC = test system: EKVX NSCLC
A498 renal = test system: A498 renal
HL-60(TB) leukemia = test system: HL-60(TB) leukemia
HOP-92 NSCLC = test system: HOP-92 NSCLC

| Structure (SMILES) | TGI (SK-MEL-5 melanoma) | TGI (OVCAR-8 ovarian) | TGI (SR leukemia) | TGI (SW-620 colon) | TGI (RPMI-8226 leukemia) | TGI (SNB-19 CNS) | TGI (EKVX NSCLC) | TGI (A498 renal) | TGI (HL-60(TB) leukemia) | TGI (HOP-92 NSCLC) | GI50 (SK-MEL-5 melanoma) | GI50 (HOP-92 NSCLC) | GI50 (OVCAR-8 ovarian) | GI50 (SW-620 colon) | GI50 (RPMI-8226 leukemia) | GI50 (SNB-19 CNS) | GI50 (EKVX NSCLC) | GI50 (A498 renal) | GI50 (HL-60(TB) leukemia) | GI50 (SR leukemia) |
| --- | --- | --- | --- | --- | --- | --- | --- | --- | --- | --- | --- | --- | --- | --- | --- | --- | --- | --- | --- | --- |
| C1CN2N3CCCC23C1 (centres undefined) | > 100 µM | > 100 µM | > 100 µM | > 100 µM | > 100 µM | > 100 µM | > 100 µM | > 100 µM | > 100 µM |  |  |  |  |  |  |  |  |  |  |  |
| CCC1CCC2CCCC(C)N12 (centres undefined) |  | > 100 µM | > 100 µM | > 100 µM | > 100 µM | > 100 µM | > 100 µM |  | > 100 µM | > 100 µM |  |  |  |  |  |  |  |  |  |  |
| CC(C)(C)C1=NC(S)NC(CCC(=O)Nc2ccccc2[N+](=O)[O-])=C1 (centres undefined) | > 100 µM | > 100 µM | > 100 µM | > 100 µM |  | > 100 µM | > 100 µM |  | > 100 µM | > 100 µM |  |  |  |  |  |  |  |  |  |  |
| c1ccc(-c2nnc(-c3nn(-c4ccccc4)c4nc5ccccc5nc34)o2)cc1 |  | > 100 µM |  | > 100 µM | > 100 µM | > 100 µM | > 100 µM |  | 85.2 µM |  |  |  |  |  |  |  |  |  |  |  |
| CC(=O)OCCc1cccnc1/C=N/O | > 100 µM | > 100 µM | > 100 µM | > 100 µM |  | > 100 µM | > 100 µM |  | > 100 µM | > 100 µM |  |  |  |  |  |  |  |  |  |  |
| O=C1CCC(NC(=O)c2ccccc2)C(=O)N1 (centres undefined) | > 100 µM | > 100 µM | > 100 µM | > 100 µM | > 100 µM | > 100 µM | > 100 µM | > 100 µM |  | > 100 µM |  |  |  |  |  |  |  |  |  |  |
| CNC(=O)c1cc(Oc2ccc3c(c2)sc2nc(-c4ccc(N)cc4)cn23)ccn1 | 11.5 µM | > 100 µM |  | > 100 µM | 26.3 µM | > 100 µM | > 100 µM | 0.65 µM |  | > 100 µM | 0.222 µM | 5.98 µM | 0.39 µM | 0.153 µM | 0.32 µM | 0.405 µM | 0.458 µM | 0.0762 µM | 0.108 µM |  |
| CCCNC(=O)OCc1c(COC(=O)NCCC)c(-c2ccc(Cl)c(Cl)c2)n2c1CCC2 | 19.5 µM | 16.9 µM |  | 20.6 µM | 24.4 µM | 39.1 µM | 30.2 µM | 3.24 µM | 7.7 µM | 9.98 µM |  |  |  |  |  |  |  |  |  |  |
| NC1(CCCCCCCCCCC(=O)O)CNCCNCCNCCNC1 | > 100 µM | > 100 µM | 67.2 µM | > 100 µM | > 100 µM | 77.6 µM | > 100 µM | 46.7 µM | 47.5 µM |  |  |  |  |  |  |  |  |  |  |  |
| Clc1cccc(NC=Nc2ccc(-c3nc4ccccc4s3)cc2)c1 | 21.6 µM | 30.6 µM | 21.1 µM | > 50 µM | > 50 µM | > 50 µM | 29.9 µM |  | 27.3 µM | > 50 µM | 10.5 µM | 19.6 µM | 13.1 µM | 16.7 µM | 14.4 µM | 15.2 µM | 3.97 µM |  | 10.5 µM | 9.55 µM |
| COc1cc([C@@H]2c3cc4c(cc3[C@@H](NC(=O)c3cccc([N+](=O)[O-])c3)C3COC(=O)[C@@H]32)OCO4)cc(OC)c1O (some centres undefined) | 3.65 µM | 7.06 µM |  | 24.3 µM | > 22.1 µM | 14.1 µM | 10.8 µM |  |  | 22.8 µM |  |  |  |  |  |  |  |  |  |  |
| Cc1cccc2c3ccc4c(c3n(C)c12)C(=O)C=CC4=O |  | > 100 µM | > 100 µM | > 100 µM | > 100 µM | > 100 µM | > 100 µM |  | 41.9 µM | > 100 µM |  |  |  |  |  |  |  |  |  |  |
| O=C(Nc1ccccc1[N+](=O)[O-])c1ccccc1 | > 100 µM | > 100 µM |  | > 100 µM | > 100 µM | > 100 µM | > 100 µM | > 100 µM | > 100 µM | > 100 µM |  |  |  |  |  |  |  |  |  |  |
| ClCc1ccccc1CSc1ncnc2nc[nH]c12 | > 60 µM | > 60 µM | > 60 µM | > 60 µM | > 60 µM | > 60 µM | > 60 µM | > 60 µM |  | > 60 µM | > 60 µM | > 60 µM | > 60 µM | > 60 µM | > 60 µM | > 60 µM | > 60 µM | 54.1 µM |  | > 60 µM |
| O=C1NC(=O)C2C(=O)NC(=O)C1C2(c1ccccc1)c1ccc(Cl)cc1 (centres undefined) | > 100 µM | > 100 µM |  | > 100 µM | > 100 µM | > 100 µM | > 100 µM | > 100 µM | > 100 µM | > 100 µM |  |  |  |  |  |  |  |  |  |  |
| O=C1c2ccccc2-c2c1c1cc3c(cc1c(=O)n2CCCCl)OCO3 | > 100 µM | > 100 µM |  | > 100 µM | > 100 µM | > 100 µM | > 100 µM | > 100 µM |  | > 100 µM | 33.5 µM | 41.1 µM | 22.6 µM | 94.5 µM | 78.6 µM | > 100 µM | > 100 µM | 59.8 µM |  |  |
| O=C(O)/C=C/C(=O)Nc1ncn[nH]1 | > 100 µM | > 100 µM |  | > 100 µM | > 100 µM | > 100 µM | > 100 µM | > 100 µM |  | > 100 µM |  |  |  |  |  |  |  |  |  |  |
| Cc1c(N2C(=O)/C(=C\c3ccccc3O)N=C2c2ccccc2)c(=O)n(-c2ccccc2)n1C | > 100 µM | > 100 µM |  | > 100 µM | > 100 µM | > 100 µM | > 100 µM | > 100 µM | > 100 µM | 68.4 µM | 62.3 µM | 17.6 µM | 63.2 µM | > 100 µM | > 100 µM | 54.4 µM | 77 µM | > 100 µM | > 100 µM |  |
| C[Si](C)(C)c1ccc(CC2(Cc3ccc([Si](C)(C)C)cc3)CCNC2)cc1 | 3.35 µM | 3.35 µM |  | 3.38 µM |  | 13.7 µM | 18.9 µM | 2.91 µM | > 100 µM | 3.18 µM |  |  |  |  |  |  |  |  |  |  |
| O=[N+]([O-])c1ccc(NSc2ccccc2)cc1 | > 100 µM | 45.6 µM | 63.2 µM | > 100 µM |  | > 100 µM | 90.1 µM |  | 47.5 µM | > 100 µM |  |  |  |  |  |  |  |  |  |  |
| OCc1c(-c2cccc3ccccc23)sc(-c2cccc3ccccc23)c1CO | 23.6 µM | 25.7 µM | 44 µM | 29.2 µM | 43.7 µM | 25.4 µM | 25 µM |  | 42.5 µM | 30.7 µM |  |  |  |  |  |  |  |  |  |  |
